Test results from publication PMC9029089, “1,5-Disubstituted Acylated 2-Amino-4,5-dihydroimidazoles as a New Class of Retinoic Acid Receptor–Related Orphan Receptor (ROR) Inhibitors” (International Journal of Molecular Sciences, 2022).

What was measured:
RORγ [1] = target: T1, RORγ (Mus musculus, UniProt P51450); experiment: Gal4-RORγ-LBD UAS-luciferase reporter assay in TRex-CHO-K1 cells (doxycycline-stimulated); type: cell-based; details: library 2520, RORγ cells
T1 construct: mRORγ (Pro-261-end); expressed in transfected cells
T1 sequence (P51450 261-516 limits assumed): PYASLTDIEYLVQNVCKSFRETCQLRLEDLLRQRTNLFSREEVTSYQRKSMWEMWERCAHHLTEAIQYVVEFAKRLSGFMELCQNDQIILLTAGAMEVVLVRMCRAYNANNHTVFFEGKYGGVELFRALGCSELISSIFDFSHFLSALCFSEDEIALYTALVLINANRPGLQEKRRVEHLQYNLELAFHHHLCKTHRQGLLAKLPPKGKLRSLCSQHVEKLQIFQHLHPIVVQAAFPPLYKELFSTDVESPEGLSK

RORγ [2] = target: T1, RORγ; experiment: as above; type: cell-based; details: individual controls 1295.201-307, 5 μg/ml, triplicate
Description: The Gal4-DBD-ROR-LBD fusion proteins were subcloned in the pcDNA4/TO expression vector (Thermo Scientific) and transfected into TRex-CHO-K1 cells (Thermo Scientific) for tetracycline-controlled expression of the corresponding ROR proteins. Transfected cells were selected with hygromycin and Zeocin and individual clones for each of the Gal4-RORγ, Gal4-RORα, and Gal4-RORβ cell lines were isolated using a standard serial dilution protocol. Clones with the highest doxycycline-dependent stimulation of luciferase activity were selected for all functional experiments.
For screening FIU libraries, cells were resuspended in Ham’s F-12 assay medium containing 2% charcoal-treated FBS and no selection drugs. […] Cells were allowed to attach for 2 h, followed by compound treatment and stimulation with 20 ng/mL doxycycline for an additional 16–20 h. Appropriate solvent controls, negative controls with no doxycycline, and blanks with no cells were included in every plate. Prior to measuring luciferase activity, 6 µL of 0.15 mg/mL resazurin (Cayman Chemical) in PBS were added and cells were incubated for 1 h at 37 °C. Fluorescence intensity was detected at 545 nm excitation/590 nm emission using a CLARIOstar reader (BMGLabtech) as a measure of cell viability, to identify any potential cytotoxic effect of test compounds and mixtures.
Luminescence was normalized by the fluorescence intensity and the percentage of inhibition was calculated with respect to control cells stimulated with doxycycline in the presence of solvent control (0.1% DMF). All primary screens with individual compounds were performed in triplicate with a final concentration of 5 µg/mL. […] IC50 values were calculated using GraphPrism (GraphPad software).

Question: With `COc1ccc(CC(=O)NC2=NCC(Cc3ccc4ccccc4c3)N2CCC2CC3CCC2C3)cc1` (mixture of isomers) [2520.02] as the compound, how does the “% Inhibition at 4 μM (N=3)” value (RORγ [1]) read?
Answer: Its value is -33.8%.

Question: With `CCC(C(=O)NC1=NCC(Cc2ccc3ccccc3c2)N1CC1CCCCC1)c1ccccc1` (mixture of isomers) [2520.03] as the compound, how does the “% Inhibition at 4 μM (N=3)” value (RORγ [1]) read?
Answer: The value was -31.8%.

Question: `CC(C)C(=O)NC1=NCC(Cc2ccc3ccccc3c2)N1CCC(C)c1ccccc1` (mixture of isomers) [2520.04] was tested. Which “% Inhibition at 4 μM (N=3)” value (RORγ [1]) did it give?
Answer: The value was -40.8%.

Question: Which “% Inhibition at 4 μM (N=3)” value (RORγ [1]) does the source give for `CCC(C(=O)NC1=NCC(Cc2ccc3ccccc3c2)N1CCC(C)c1ccccc1)c1ccccc1` (mixture of isomers) [2520.07] here?
Answer: Its value is -32.2%.

Question: How did the “% Inhibition at 4 μM (N=3)” value (RORγ [1]) turn out when `COc1ccc(CC(=O)NC2=NCC(Cc3ccc4ccccc4c3)N2CCC(C)c2ccccc2)cc1` (mixture of isomers) [2520.10] was run?
Answer: The value was -7.3%.

Question: Which “% Inhibition at 4 μM (N=3)” value (RORγ [1]) does the source give for `CCC(C)C1CN=C(NC(=O)Cc2ccc(OC)cc2)N1CCC1CC2CCC1C2` (mixture of isomers) [2520.14] here?
Answer: Its value is 43.0%.

Question: Which “% Inhibition at 4 μM (N=3)” value (RORγ [1]) does the source give for `CCC(C)C1CN=C(NC(=O)C(C)C)N1CCC1CC2CCC1C2` (mixture of isomers) [2520.20] here?
Answer: Its value is 13.3%.

Question: `CCC(C(=O)NC1=NCC(C(C)CC)N1CCC1CC2CCC1C2)c1ccccc1` (mixture of isomers) [2520.23] was tested. Which “% Inhibition at 4 μM (N=3)” value (RORγ [1]) did it give?
Answer: Its value is 35.9%.

Question: How did the “% Inhibition at 4 μM (N=3)” value (RORγ [1]) turn out when `COc1ccc(CC(=O)NC2=NCC(Cc3ccccc3)N2CCC2CC3CCC2C3)cc1` (mixture of isomers) [2520.26] was run?
Answer: The value was 40.8%.

Question: For `CC(C)C(=O)NC1=NCC(Cc2ccccc2)N1CCC1CC2CCC1C2` (mixture of isomers) [2520.32], which “% Inhibition at 4 μM (N=3)” value (RORγ [1]) is on record?
Answer: The value was 36.0%.

Question: For `COc1ccc(CC(=O)NC2=NCC(Cc3ccccc3)N2CCC(C)c2ccccc2)cc1` (mixture of isomers) [2520.34], which “% Inhibition at 4 μM (N=3)” value (RORγ [1]) is on record?
Answer: Its value is 34.4%.

Question: With `CCC(C(=O)NC1=NCC(Cc2ccccc2)N1CCC1CC2CCC1C2)c1ccccc1` (mixture of isomers) [2520.35] as the compound, how does the “% Inhibition at 4 μM (N=3)” value (RORγ [1]) read?
Answer: The value was -21.7%.

Question: Which “% Inhibition at 4 μM (N=3)” value (RORγ [1]) does the source give for `CCOc1ccc(CC2CN=C(NC(=O)Cc3ccc(OC)cc3)N2CCC2CC3CCC2C3)cc1` (mixture of isomers) [2520.38] here?
Answer: Its value is -22.6%.

Question: With `CCOc1ccc(CC2CN=C(NC(=O)C(C)C)N2CCC(C)c2ccccc2)cc1` (mixture of isomers) [2520.40] as the compound, how does the “% Inhibition at 4 μM (N=3)” value (RORγ [1]) read?
Answer: The value was -8.1%.

Question: Which “% Inhibition at 4 μM (N=3)” value (RORγ [1]) does the source give for `CCOc1ccc(CC2CN=C(NC(=O)C(CC)c3ccccc3)N2CCC(C)c2ccccc2)cc1` (mixture of isomers) [2520.43] here?
Answer: Its value is -5.4%.

Question: For `CCOc1ccc(CC2CN=C(NC(=O)C(C)C)N2CCC2CC3CCC2C3)cc1` (mixture of isomers) [2520.44], which “% Inhibition at 4 μM (N=3)” value (RORγ [1]) is on record?
Answer: The value was -20.0%.

Question: How did the “% Inhibition RORγ 5 μg/ml” value (RORγ [2]) turn out when `O=C(Cc1ccccc1)NC1=NC[C@H](Cc2ccccc2)N1CCCC1CCCC1` [1295.267] was run?
Answer: Its value is 56.2%.

Question: With `Cc1cccc(CC(=O)NC2=NC[C@H](Cc3ccccc3)N2CCc2ccccc2)c1` [1295.275] as the compound, how does the “% Inhibition RORγ 5 μg/ml” value (RORγ [2]) read?
Answer: The value was 60.7%.

Question: How did the “% Inhibition RORγ 5 μg/ml” value (RORγ [2]) turn out when `O=C(Cc1cccc(F)c1)NC1=NC[C@H](Cc2ccccc2)N1CCc1ccccc1` [1295.276] was run?
Answer: The value was 104.2%.

Question: How did the “% Inhibition RORγ 5 μg/ml” value (RORγ [2]) turn out when `O=C(Cc1cccc(Br)c1)NC1=NC[C@H](Cc2ccccc2)N1CCc1ccccc1` [1295.277] was run?
Answer: Its value is 97.6%.

Question: Which “% Inhibition RORγ 5 μg/ml” value (RORγ [2]) does the source give for `O=C(Cc1ccc(F)cc1)NC1=NC[C@H](Cc2ccccc2)N1CCc1ccccc1` [1295.278] here?
Answer: Its value is 29.8%.

Question: `COc1cccc(CC(=O)NC2=NC[C@H](Cc3ccccc3)N2CCc2ccccc2)c1` [1295.279] was tested. Which “% Inhibition RORγ 5 μg/ml” value (RORγ [2]) did it give?
Answer: The value was 75.2%.

Question: Which “% Inhibition RORγ 5 μg/ml” value (RORγ [2]) does the source give for `O=C(Cc1ccc(Br)cc1)NC1=NC[C@H](Cc2ccccc2)N1CCc1ccccc1` [1295.280] here?
Answer: Its value is 42.0%.

Question: For `COc1ccc(CC(=O)NC2=NC[C@H](Cc3ccccc3)N2CCc2ccccc2)cc1` [1295.281], which “% Inhibition RORγ 5 μg/ml” value (RORγ [2]) is on record?
Answer: The value was 52.6%.

Question: How did the “% Inhibition RORγ 5 μg/ml” value (RORγ [2]) turn out when `CCOc1ccc(CC(=O)NC2=NC[C@H](Cc3ccccc3)N2CCc2ccccc2)cc1` [1295.282] was run?
Answer: The value was -2.3%.

Question: How did the “% Inhibition RORγ 5 μg/ml” value (RORγ [2]) turn out when `COc1ccc(CCC(=O)NC2=NC[C@H](Cc3ccccc3)N2CCc2ccccc2)cc1OC` [1295.284] was run?
Answer: Its value is 34.0%.

Question: With `O=C(Cc1ccc(-c2ccccc2)cc1)NC1=NC[C@H](Cc2ccccc2)N1CCc1ccccc1` [1295.285] as the compound, how does the “% Inhibition RORγ 5 μg/ml” value (RORγ [2]) read?
Answer: The value was 11.1%.

Question: `COc1ccc(CC(=O)NC2=NC[C@H](Cc3ccccc3)N2CCc2ccccc2)cc1OC` [1295.287] was tested. Which “% Inhibition RORγ 5 μg/ml” value (RORγ [2]) did it give?
Answer: The value was 54.7%.

Question: For `Cc1cccc(C(=O)NC2=NC[C@H](Cc3ccccc3)N2CCc2ccccc2)c1` [1295.288], which “% Inhibition RORγ 5 μg/ml” value (RORγ [2]) is on record?
Answer: The value was 59.9%.

Question: With `O=C(CCCc1ccccc1)NC1=NC[C@H](Cc2ccccc2)N1CCc1ccccc1` [1295.290] as the compound, how does the “% Inhibition RORγ 5 μg/ml” value (RORγ [2]) read?
Answer: The value was 60.2%.

Question: Which “% Inhibition RORγ 5 μg/ml” value (RORγ [2]) does the source give for `O=C(Cc1ccccc1)NC1=NC[C@H](Cc2ccccc2)N1CCc1ccccc1` [1295.291] here?
Answer: The value was 5.6%.

Question: With `CCc1ccc(-c2ccc(C(=O)NC3=NC[C@H](Cc4ccccc4)N3CCc3ccccc3)cc2)cc1` [1295.292] as the compound, how does the “% Inhibition RORγ 5 μg/ml” value (RORγ [2]) read?
Answer: Its value is 48.3%.

Question: Which “% Inhibition RORγ 5 μg/ml” value (RORγ [2]) does the source give for `CCCC(=O)NC1=NC[C@H](Cc2ccccc2)N1CCc1ccccc1` [1295.293] here?
Answer: The value was 37.4%.

Question: For `CCCCCCC(=O)NC1=NC[C@H](Cc2ccccc2)N1CCc1ccccc1` [1295.294], which “% Inhibition RORγ 5 μg/ml” value (RORγ [2]) is on record?
Answer: Its value is 44.3%.

Question: Which “% Inhibition RORγ 5 μg/ml” value (RORγ [2]) does the source give for `CC(C)C(=O)NC1=NC[C@H](Cc2ccccc2)N1CCc1ccccc1` [1295.295] here?
Answer: The value was 31.3%.

Question: For `CC(C)CCC(=O)NC1=NC[C@H](Cc2ccccc2)N1CCc1ccccc1` [1295.297], which “% Inhibition RORγ 5 μg/ml” value (RORγ [2]) is on record?
Answer: The value was 62.2%.

Question: With `CC(=O)NC1=NC[C@H](Cc2ccccc2)N1CCc1ccccc1` [1295.301] as the compound, how does the “% Inhibition RORγ 5 μg/ml” value (RORγ [2]) read?
Answer: The value was 15.4%.

Question: For `O=C(NC1=NC[C@H](Cc2ccccc2)N1CCc1ccccc1)C1CCC1` [1295.302], which “% Inhibition RORγ 5 μg/ml” value (RORγ [2]) is on record?
Answer: The value was 24.7%.

Question: For `O=C(NC1=NC[C@H](Cc2ccccc2)N1CCc1ccccc1)C1CCCC1` [1295.303], which “% Inhibition RORγ 5 μg/ml” value (RORγ [2]) is on record?
Answer: Its value is 3.3%.

Question: With `O=C(CCC1CCCC1)NC1=NC[C@H](Cc2ccccc2)N1CCc1ccccc1` [1295.304] as the compound, how does the “% Inhibition RORγ 5 μg/ml” value (RORγ [2]) read?
Answer: The value was 45.5%.

Question: Which “% Inhibition at 4 μM (N=3)” value (RORγ [1]) does the source give for `COc1ccc(CC(=O)NC2=NC[C@H](Cc3ccc4ccccc4c3)N2CC2CCCCC2)cc1` [2520.06] here?
Answer: Its value is -56.4%.

Question: `CC(C)C(=O)NC1=NC[C@H](Cc2ccc3ccccc3c2)N1CC1CCCCC1` [2520.12] was tested. Which “% Inhibition at 4 μM (N=3)” value (RORγ [1]) did it give?
Answer: Its value is 30.4%.

Question: For `CC[C@H](C)[C@H]1CN=C(NC(=O)Cc2ccc(OC)cc2)N1CC1CCCCC1` [2520.18], which “% Inhibition at 4 μM (N=3)” value (RORγ [1]) is on record?
Answer: The value was 26.2%.

Question: With `COc1ccc(CC(=O)NC2=NC[C@H](Cc3ccccc3)N2CC2CCCCC2)cc1` [2520.30] as the compound, how does the “% Inhibition at 4 μM (N=3)” value (RORγ [1]) read?
Answer: The value was -4.8%.

Question: How did the “% Inhibition at 4 μM (N=3)” value (RORγ [1]) turn out when `CC(C)C(=O)NC1=NC[C@H](Cc2ccccc2)N1CC1CCCCC1` [2520.36] was run?
Answer: Its value is -5.4%.
